The results in this text go back to patent US12540943B2, “Use of Acyl coenzyme A: cholesterol acyltransferase-1 in diagnosis and treatment of liver cancer” (ACADEMY OF MILITARY MEDICAL SCIENCES, priority 2018, dated 2026).

In test [1] the test system is PLC/PRF/5. In words: CCK8 experiment, proliferation of liver cancer cell line. The test is classed as cell-based, human. Here is the method:
(§1) 1) On the first day, after routine trypsinization and counting of cells in a 60 mm culture dish, 5000 cells/well, inoculated 4 96-well plates.
(§2) 2) On the second day, after about 24 hours of culture, the cell growth was in the logarithmic phase. Replaced with a new culture medium added with different concentrations of SOAT1 inhibitor, 100 μl/well, set 10 μM, 20 μM concentration group and control group respectively, the control group was 1% DMSO, each group had 3 repetitive wells. Took a 96-well plate and added 10% CCK8, 100 μl/well, and measured the OD value at 0 hour at 450 nm wavelength after 1 hour. Cell-free well was a blank background.
(§3) 3) On the third day, added 10% CCK8 to a 96-well plate, and measured the OD value at 24 hours at 450 nm wavelength after 1 hour.
(§4) 4) On the fourth day, added 10% CCK8 to a 96-well plate, and measured the OD value at 48 hours at 450 nm wavelength after 1 hour.
(§5) 5) On the fifth day, added 10% CCK8 to a 96-well plate, and measured the OD value at 72 hours at 450 nm wavelength after 1 hour.
(§6) 6) Summarized the OD values at all time points and drew growth curves. 8. Cell migration experiment

A further test has as its system Huh7. The test is described as above. The test is classed as cell-based, human. Conditions: for effect on proliferation: Huh7, CCK8 growth curves 0-72 hours, inhibitor 10 μM, 20 μM. The protocol: (§7) 7. CCK8 experiment 1) On the first day, after routine trypsinization and counting of cells in a 60 mm culture dish, 5000 cells/well, inoculated 4 96-well plates. 2) On the second day, after about 24 hours of culture, the cell growth was in the logarithmic phase. […] Took a 96-well plate and added 10% CCK8, 100 μl/well, and measured the OD value at 0 hour at 450 nm wavelength after 1 hour. Cell-free well was a blank background. 3) On the third day, added 10% CCK8 to a 96-well plate, and measured the OD value at 24 hours at 450 nm wavelength after 1 hour. 4) On the fourth day, added 10% CCK8 to a 96-well plate, and measured the OD value at 48 hours at 450 nm wavelength after 1 hour. 5) On the fifth day, added 10% CCK8 to a 96-well plate, and measured the OD value at 72 hours at 450 nm wavelength after 1 hour. 6) Summarized the OD values at all time points and drew growth curves. 8. Cell migration experiment

For another test, the system named is MHCC97H. The test is described as above. In kind it is cell-based, human. The settings on record: for effect on proliferation: CCK8 growth curves 0-72 hours, inhibitor 10 μM, 20 μM. Here is the method: as §7
Test [2] relates to HepG2. Put plainly: Cell migration experiment (transwell). The settings on record: 20-24 hours, Avasimibe concentration 10 μM or SOAT1 knockdown. The test is classed as cell-based, human. The protocol:
as §6
(§8) (1) Starving cells: Withdrew the whole medium, washed twice with PBS, and replaced with serum-free DMEM.
(§9) (2) Added 2.5% serum of DMEM to the transwell lower chamber, 600 ul/well. Equilibrated overnight in a 37° C. incubator. Thetranswell chamber was 3422 of
(§10) (3) Added trypsin to digest the hungry cells from yesterday (about 30-50 seconds at room temperature), quickly and carefully sucked up the trypsin, added 1 ml of complete medium, and collected in a 1.5 ml centrifuge tube;
(§11) (4) Centrifuged at 800 rpm for 4 min; discarded the supernatant, added serum-free DMEM, and washed once; centrifuged again for 4 min at 800 rpm; discarded the supernatant and added 0.5% FBS in DMEM;
(§12) 100 μl/well was added to the tanswell upper chamber. The third day (20-24 hours later): (6) Discarded the culture medium; (7) Fixed with anhydrous methanol for 20 minutes; (8) Air-dried the film; (9) Pinched the cotton of the cotton swab to flat and rotated it to clean the upper chamber cells. Wrapped the tweezers with a cotton ball to gently wipe off the edge cells. (10) 0.5% crystal violet staining; (11) Rinsed slowly with clean water; (12) Observed and took pictures under an inverted microscope. 9. Western blot detection was done by conventional methods. 10. Statistical analysis

Test [3] relates to PLC/PRF/5. In words: Cell migration experiment (transwell). The test is classed as cell-based, human. The settings on record: 20-24 hours, Avasimibe concentration 10 μM or SOAT1 knockdown. Here is the method: as §6, §8, §9, §10, §11, §12
Test [4] relates to transcription factor SREBF2. Put plainly: Expression of cholesterol regulation and tumor invasion molecules (FIG. 8). In kind it is cell-based.
Another test has as its system ITGB4. The test is described as above. The test is classed as cell-based.
A further test has as its system TGFBR1. The test is described as above. In kind it is cell-based.
Test [5] has as its system colon cancer HCT116 cell line. In words: Proliferation of other tumor cell lines. In kind it is cell-based, human. Conditions: HCT116, FIG. 7. The protocol: as §1, §2, §3, §4, §5, §6
The subject of test [6] is esophageal cancer ECA109 cell line. Put plainly: Proliferation of other tumor cell lines. The settings on record: ECA109, FIG. 7. The test is classed as cell-based, human. The protocol: as §1, §2, §3, §4, §5, §6
Test [7] has as its system leukemia Jurkat cell line. In words: Proliferation of other tumor cell lines. The test is classed as cell-based, human. Conditions: FIG. 7. The protocol:
as §1, §2, §3, §4, §5, §6

For test [8], the system named is non-small cell lung cancer A549 cell line. Put plainly: Proliferation of other tumor cell lines. The test is classed as cell-based, human. The settings on record: A549, FIG. 7. The protocol:
as §1, §2, §3, §4, §5, §6

Test [9] deals with Cervical cancer Hela cell line. In words: Proliferation of other tumor cell lines. The settings on record: FIG. 7. The test is classed as cell-based, human. The protocol: as §1, §2, §3, §4, §5, §6
Test [10] has as its system breast cancer MCF7 cell line. Put plainly: Proliferation of other tumor cell lines. In kind it is cell-based, human. The settings on record: MCF7, FIG. 7. Here is the method:
as §1, §2, §3, §4, §5, §6

The next test has as its system ITGAV. Put plainly: Expression of cholesterol regulation and tumor invasion molecules (FIG. 8). In kind it is cell-based.
Test [11] has as its system extracellular uptake receptor (LDLR). The test is described as above. In kind it is cell-based.
For test [12], the system named is HepG2. In words: CCK8 experiment, proliferation of liver cancer cell line. In kind it is cell-based, human. Conditions: CCK8 growth curves 0-72 hours, inhibitor 10 μM, 20 μM or SOAT1 knockdown.

For Avasimibe, the IC50 – broadly, the midpoint of a concentration-inhibition curve – with PLC/PRF/5 [1] (PLC/PRF/5, FIG. 5A) came out at 6.9 µM; in the test with Huh7 (Huh7, FIG. 5A) it was 6.8 µM; in the test with MHCC97H (FIG. 5A) it was 25.2 µM. Moreover, the effect on proliferation entry is recorded as “significantly inhibit the proliferation” in the test with PLC/PRF/5 [1] (PLC/PRF/5, CCK8 growth curves 0-72 hours, inhibitor 10 μM, 20 μM or SOAT1 knockdown); “significantly inhibit the proliferation” in the test on Huh7; “significantly inhibit the proliferation” in the test on MHCC97H; “significantly inhibited the proliferation” in [5]; “significantly inhibited the proliferation” in [6]; “significantly inhibited the proliferation” in test [7]. The effect on proliferation result in [8] is “significantly inhibited the proliferation”; in [9], “significantly inhibited the proliferation”; in [10], “significantly inhibited the proliferation”; in the test with HepG2 [12], “significantly inhibit the proliferation”. Moreover, the effect on migration result with HepG2 [2] and with PLC/PRF/5 [3] was “significantly reduce the migration” throughout. The “effect on expression of SREBF2” value in test [4] is “significantly inhibit the expression”. Also, in the test on ITGB4, the “effect on expression of ITGB4” value is recorded as “significantly inhibit the expression”. Moreover, in the test on TGFBR1, the “effect on expression of TGFBR1” value was “significantly inhibit the expression”. In addition, in the test with ITGAV, the “effect on expression of ITGAV” value is reported as “significantly inhibit the expression”. Further, in test [11], the “effect on expression of LDLR” value is “significantly inhibit the expression”.
Take `CSc1cc(C)nc(SC)c1NC(=O)CN1CCN(CCSc2nc3ccccc3[nH]2)CC1.Cl` [K604, 2-[4-[2-(benzimidazol-2-ylthio)ethyl]piperazin-lyl]-N-[2,4-bis(methylthio)-6-methyl-3-pyridyl]acetamide]: the effect on proliferation result in the test on Huh7 and in the test with MHCC97H was “significantly inhibited the proliferation” in each case.
